As a reminder, the IC50 is the point on the concentration scale where inhibition reaches its midpoint. A word on the Papp A→B: it is how fast a substance crosses the layer from the apical side. The low end stands for slow passage, the high end for fast passage. The term solubility denotes the concentration that dissolves in the medium under given conditions. What is called efflux ratio is the permeability from basolateral to apical divided by that in the opposite direction, in the common usage. As a reminder, the Kd is the concentration at which binding is half-saturated.

In brackets after ≈: the same amount, converted by molar mass. Read-outs that look alike come from different tables or passages of the source. A value given as a limit tells only on which side of the number the result lay.

The test system of series [1] is VHL. To be noted: read-out: TR-FRET IC50 (value marked *: FP assay), ref as reported previously; cited from earlier work. In general terms: Time-resolved FRET reads energy transfer from a long-lived donor to a nearby acceptor.
Series [2] is described as follows: Bidirectional permeability in Caco2 cells. It counts as in vitro ADME. The settings on record: human, Caco-2, 1 or 10 µM, pH 7.4; for Papp A→B: apical to basolateral. Here is the method:
Bidirectional permeability of test compounds across a Caco2 cell monolayer was measured as described previously. […] Cells were incubated with the compounds for up to 2 h, and samples from the opposite (receiver) compartment were taken at different time points.
(Passage across Caco-2 layers is used to estimate intestinal permeability.)

Series [3] is described as follows: Solubility testing (aqueous, LCUV). The settings on record: aqueous buffer, kinetic from dmso stock, pH 6.8, final concentration 125 µg/mL. Format: physicochemical. Here is the method: Dilution into a 1:1 mixture of acetonitrile and water was used as a reference. After 24 h, the incubations were filtrated, and the filtrate was analyzed by LCUV.
Series [4] addresses 13C-methyl labeled VCB complex (Homo sapiens, UniProt P40337). Briefly: Protein-observed NMR titration / hit validation. To be noted: for induced CSPs, Val and Leu region (binding region): 200 µM 13C labeled VCB, 500 µM VH298 or reference molecule 2, 1000 µM of 1.
Series [5] has as its target VCB (VHL-ElonginC-ElonginB) complex (Homo sapiens, UniProt P40337). As to the kind of experiment: TR-FRET VCB—VHL tracer binding assay.
Series [6] is described as follows: NMR detected solubility in NMR buffer. It counts as physicochemical. The settings on record: 500 µM target, 20 mM TRIS, 100 mM NaCl, pH 7.5 in D2O, 1H NMR vs maleic acid.
Setting [7] is: read-out: TR-FRET IC50, Cy5-labeled VHL tracer, 10 nM His-tagged VCB, mean ± s.d., 1 as diastereomeric mixture.

13C-methyl labeled VCB complex, sequence (P40337 54-213): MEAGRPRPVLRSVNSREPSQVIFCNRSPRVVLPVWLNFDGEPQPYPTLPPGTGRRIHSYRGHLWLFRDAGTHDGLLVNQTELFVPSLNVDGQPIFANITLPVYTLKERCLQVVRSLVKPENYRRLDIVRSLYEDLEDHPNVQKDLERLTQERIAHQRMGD
13C-methyl labeled VCB complex, sequence (Q15370 1-104 partner limits assumed): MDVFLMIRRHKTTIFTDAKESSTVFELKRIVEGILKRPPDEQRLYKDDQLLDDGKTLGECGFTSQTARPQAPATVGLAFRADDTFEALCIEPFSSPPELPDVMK
13C-methyl labeled VCB complex, sequence (Q15369 17-112 partner limits assumed): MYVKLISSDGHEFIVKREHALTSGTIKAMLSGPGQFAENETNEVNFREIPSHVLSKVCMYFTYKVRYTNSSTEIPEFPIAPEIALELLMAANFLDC
VCB (VHL-ElonginC-ElonginB) complex, sequence (P40337 54-213): as the sequence (P40337 54-213) above
VCB (VHL-ElonginC-ElonginB) complex, sequence (Q15370 1-104 partner limits assumed): as the sequence (Q15370 1-104 partner limits assumed) above
VCB (VHL-ElonginC-ElonginB) complex, sequence (Q15369 17-112 partner limits assumed): as the sequence (Q15369 17-112 partner limits assumed) above

As for `Cc1ncsc1-c1ccc(CNC(=O)[C@@H]2C[C@@H](O)CN2C(=O)[C@@H](NC(=O)C2(F)CC2)C(C)(C)C)cc1` [Reference molecule 1], in series [1], the concentration for half-maximal inhibition (IC50) was […]. This compound also displayed a Papp A→B in series [2] of 2.9 ×10⁻⁶ cm/s. This compound came in with a solubility at 24 h in series [3] above 115 µg/mL.
Regarding `Cc1cc(CC(=O)N2C[C@H](O)C[C@H]2C(=O)NCc2ccc(Cl)cc2)on1` [Reference molecule 2], the efflux ratio in series [2] was 4.8. Also, in series [4], the “induced CSPs, Val and Leu region (binding region)” value (shortened to “induced CSPs, Val and Leu region”) is listed as “interact with the same binding region”. In addition, the Kd in series [4] (read-out: NMR KD, fit of dose-dependent chemical shifts of peaks #1 and #2, two independent titrations) amounted to 29 ± 1 µM. The compound also came in with a solubility at 24 h in series [3] above 88 µg/mL. The IC50 in series [5] (setting [7]) worked out at 132 ± 38 µM.
With `Cc1ncsc1-c1ccc(CNC(=O)[C@@H]2C[C@@H](O)CN2C(=O)[C@@H](NC(=O)C2(C#N)CC2)C(C)(C)C)cc1` [VH298, (2S,4R)-1-((S)-2-(1-Cyanocyclopropanecarboxamido)−3,3-dimethylbutanoyl)-4-hydroxy-N-(4-(4-methylthiazol-5-yl)benzyl)pyrrolidine-2-carboxamide], the “induced CSPs, Val and Leu region” value in series [4] was “interact with the same binding region”.
For `Cc1ncsc1-c1ccc(CNC(=O)C2CC(O)CN(c3ccccn3)C2=O)cc1` (centres unmarked) [compound 1], in series [2], the Papp A→B was determined as 23 ×10⁻⁶ cm/s. Also, in series [4], binding was put at a Kd of 182 ± 76 µM; the “induced CSPs, Val and Leu region” value is reported as “interact with the same binding region”. For the same compound, in series [6] (NMR buffer, aqueous buffer), the solubility was above 500 µM. In addition, the solubility at 24 h in series [3] is above 98 µg/mL. The compound also returned a half-inhibitory concentration (IC50) in series [5] of 264 ± 30 µM.
In turn, `Cc1ncsc1-c1ccc(CNC(=O)c2cc(=O)cc(Cl)[nH]2)cc1` [compound 2] showed a solubility in series [6] of 20.0 µM (≈ 7.2 µg/mL). The IC50 in series [5] (setting [7]) was above 100 µM.
In series [6], `Cc1ncsc1-c1ccc(CNC(=O)c2cc(=O)cc(-c3ccccc3)[nH]2)cc1` [compound 3] came in with a solubility of 280.0 µM (≈ 112 µg/mL). In addition, the half-inhibitory concentration (IC50) in series [5] (setting [7]) worked out at 13.8 ± 1.8 µM.
Take `Cc1ncsc1-c1ccc(CNC(=O)c2c[nH]cc(Br)c2=O)cc1` [compound 4]: the concentration in solution in series [6] (NMR buffer, aqueous buffer) (solubility) was 40 µM (≈ 16.2 µg/mL). The concentration for half-maximal inhibition (IC50) in series [5] (setting [7]) was above 100 µM.
With `Cc1ncsc1-c1ccc(CNC(=O)c2c[nH]cc(-c3ccccc3)c2=O)cc1` [compound 5], the solubility in series [6] came to 20.0 µM (≈ 8.03 µg/mL). Also, the IC50 in series [5] (setting [7]) is above 100 µM.
In the case of `Cc1ncsc1-c1ccc(CNCc2cc(CO)nc(N(C)c3ccccc3)c2)cc1` [compound 6], in series [6], the solubility is given as 70.0 µM (≈ 30.1 µg/mL). Besides, in series [5] (setting [7]), the half-maximal inhibitory concentration (IC50) was above 500 µM.
`Cc1ncsc1-c1ccc(CN(Cc2cc(Cl)nc(CO)c2)C(=O)OC(C)(C)C)cc1` [compound 7] showed a solubility in series [6] of 60.0 µM (≈ 27.6 µg/mL). Moreover, in series [5] (setting [7]), the IC50 worked out at 106 ± 5.2 µM.
As to `CN(CCNCc1ccccc1)c1cnn[nH]1` [compound 8], the solubility in series [6] stood at 430.0 µM (≈ 99.5 µg/mL). Besides, in series [5] (setting [7]), the 50% inhibitory concentration (IC50) is above 500 µM.
For `Cc1ncsc1-c1ccc(CNc2cc(CO)cc3c2cnn3C)cc1` [compound 9], the concentration in solution in series [6] (NMR buffer, aqueous buffer) (solubility) was 110 µM (≈ 40.1 µg/mL). In addition, the IC50 in series [5] is above 100 µM.
In turn, `Cc1ncsc1-c1ccc(CNc2cc(CO)cc3nn(C)cc23)cc1` [compound 10] gave a solubility in series [6] (NMR buffer, aqueous buffer) of 240 µM (≈ 87.5 µg/mL). In series [5], this compound yielded an IC50 of 167 ± 47 µM.
Compound `Cc1ncsc1-c1ccc(C(=O)Nc2cc(CO)cc3c2cnn3C)cc1` [compound 11] yielded a solubility in series [6] of 180.0 µM (≈ 68.1 µg/mL). Further, in series [5] (setting [7]), the IC50 was above 500 µM.
The compound `Cc1ncsc1-c1ccc(C(=O)Nc2cc(CO)cc3nn(C)cc23)cc1` [compound 12] yielded a solubility in series [6] of 70.0 µM (≈ 26.5 µg/mL). In addition, the 50% inhibitory concentration (IC50) in series [5] (setting [7]) stood at 255 ± 45 µM.
The compound `Cc1ncsc1-c1ccc(CNC(=O)c2cc(O)cc(Br)c2)cc1` [compound 13] had a solubility in series [6] of 20.0 µM (≈ 8.07 µg/mL). Moreover, in series [5] (setting [7]), the half-maximal inhibitory concentration (IC50) was above 100 µM.
The like results for `Cc1ncsc1-c1ccc(CNC(=O)c2cc(O)cc(-c3ccccc3)c2)cc1` [compound 14] were, in that order, below 10.0 µM and 15.6 ± 1.2 µM.
In the case of `Cc1ncsc1-c1ccc(-c2ccc3cccc(C(N)=O)c3c2)cc1` [compound 15], the solubility in series [6] (NMR buffer, aqueous buffer) was below 10 µM.
Regarding `Cc1ncsc1-c1ccc(-c2ccc3nccc(C(N)=O)c3c2)cc1` [compound 16], the solubility in series [6] was below 10.0 µM. Further, the IC50 in series [5] (setting [7]) amounted to 8.8 ± 0.8 µM.
`Cc1ncsc1-c1ccc(CNC(=O)[C@@H]2C[C@@H](O)Cc3ccccc32)cc1` [compound 17] returned a solubility in series [6] of 400.0 µM (≈ 151 µg/mL). Also, the half-maximal inhibitory concentration (IC50) in series [5] (setting [7]) was found to be 313 ± 135 µM.
Turning to `Cc1ncsc1-c1ccc(CNC(=O)[C@H]2C[C@H](O)Cc3ccccc32)cc1` [compound 18], in series [6], the solubility is above 500.0 µM. Further, the IC50 in series [5] (setting [7]) was 166 ± 77 µM.
Turning to `Cc1ncsc1-c1ccc(CNC(=O)C2CC(O)CN(c3ccccn3)C2)cc1` (centres unmarked) [compound 19], the solubility in series [6] is 230.0 µM (≈ 94 µg/mL). Besides, the IC50 in series [5] (setting [7]) is above 100 µM.
For the compound `O=C(Cc1ccc2cc(O)ccc2c1)Nc1cc[nH]n1` [compound 22], in series [6] (NMR buffer, aqueous buffer), the solubility turned out to be 350 µM (≈ 93.6 µg/mL). Further, in series [5], the half-maximal inhibitory concentration (IC50) was 315 ± 44 µM.
As to `Cc1ncsc1-c1ccc(CNC(=O)C2CC(O)CC(c3ccccc3)C2)cc1` (centres unmarked) [compound 23], the solubility in series [6] is 110.0 µM (≈ 44.7 µg/mL). The IC50 in series [5] (setting [7]) is above 100 µM.
Compound `Cc1ncsc1-c1ccc(CNC(=O)[C@@H]2C[C@@H](O)C[C@H](c3ccccc3)C2)cc1` [compound 24] gave a solubility in series [6] (NMR buffer, aqueous buffer) below 10 µM. The same compound yielded an IC50 in series [5] above 100 µM.
The like results for `Cc1ncsc1-c1ccc(CNC(=O)[C@H]2C[C@H](O)C[C@@H](c3ccccc3)C2)cc1` [compound 25] were, in that order, below 10 µM and above 100 µM.
The like results for `O=S1(=O)Cc2ccccc2-c2[nH]ncc21` [compound 26] were, in that order, above 500 µM and 265 ± 74 µM.
Take `O=S1(=O)Cc2ccccc2-c2[nH]nc(Br)c21` [compound 27]: in series [6], the solubility is above 500.0 µM. For the same compound, the IC50 in series [5] (setting [7]) is above 500 µM.
For `O=S1(=O)Cc2ccccc2-c2[nH]nc(NCc3ccccc3)c21` [compound 28], in that order: 360.0 µM (≈ 117 µg/mL) and 244 ± 22 µM.
In the case of `O=[N+]([O-])c1ccc2c(c1)CS(=O)(=O)c1cn[nH]c1-2` [compound 29], the IC50 in series [5] (setting [7]) was determined as 175 ± 18 µM.
As for `Cc1ncsc1-c1ccc(CNc2cc(C(C)C)c[nH]c2=O)cc1` [compound 33], the solubility in series [6] (NMR buffer, aqueous buffer) stood at 50 µM (≈ 17 µg/mL). In series [5], the IC50 turned out to be 71.7 ± 49.3 µM.
For the compound `Cc1ncsc1-c1ccc(CNC(=O)c2cc(Br)c[nH]c2=O)cc1` [compound 34], the solubility in series [6] is 20.0 µM (≈ 8.09 µg/mL). Moreover, in series [5] (setting [7]), the IC50 is above 100 µM.
`Cc1ncsc1-c1ccc(CNC(=O)c2cc(-c3ccccc3)c[nH]c2=O)cc1` [compound 35] registered a solubility in series [6] below 10.0 µM.
`Cc1ncsc1-c1ccc(CC(=O)Nc2c[nH]c3ccccc23)cc1` [compound 36] came in with a solubility in series [6] below 10.0 µM. Further, the 50% inhibitory concentration (IC50) in series [5] (setting [7]) stood at 13 ± 4.5 µM.
Take `Cc1ncsc1-c1ccc(CNC(=O)Cc2ccc(-c3ccccc3)cc2CO)cc1` [compound 37]: the solubility in series [6] was below 10.0 µM. The IC50 in series [5] (setting [7]) was above 100 µM.
The compound `Cc1ncsc1-c1ccc(CNCc2cc(O)cc(Br)c2)cc1` [compound 38] gave a solubility in series [6] of 80.0 µM (≈ 31.1 µg/mL). Further, the concentration for half-maximal inhibition (IC50) in series [5] (setting [7]) stood at 85.7 ± 16.2 µM.
Take `Cc1ncsc1-c1ccc(CN(Cc2cc(O)cc(Br)c2)C(=O)OC(C)(C)C)cc1` [compound 39]: in series [6], the solubility is reported as below 10.0 µM. For the same compound, the IC50 in series [5] (setting [7]) is 70.7 ± 0.4 µM.
On to `Cc1ncsc1-c1ccc(CNCc2cc(O)cc(N(C)c3ccccc3)c2)cc1` [compound 40], for which the solubility in series [6] (NMR buffer, aqueous buffer) was below 10 µM. Besides, in series [5], the IC50 was 67.8 ± 5.1 µM.
`Cc1ncsc1-c1ccc(CNC(=O)c2cc(Br)cc(=O)[nH]2)cc1` [compound 41] showed a solubility in series [6] below 10.0 µM. Moreover, in series [5] (setting [7]), the IC50 was above 100 µM.
In the case of `Cc1ncsc1-c1ccc(CNC(=O)c2cc(C#N)cc(O)n2)cc1` [compound 42], the solubility in series [6] is recorded as above 500.0 µM. Also, the concentration for half-maximal inhibition (IC50) in series [5] (setting [7]) is 144 ± 10 µM.
`NC(=O)c1cn[nH]c1-c1cccc2ccccc12` [compound 43] returned a solubility in series [6] above 500.0 µM. Besides, in series [5] (setting [7]), the half-inhibitory concentration (IC50) is above 500 µM.

These data come from paper PMC11997059, “Drugit: crowd-sourcing molecular design of non-peptidic VHL binders” (Nature Communications, 2025).
